# ChEMBL document CHEMBL1148186, “Structure of Benthophoenin, a New Free Radical Scavenger Produced by Streptomyces prunicolor” (J Nat Prod, 1993)
# Experiments:
# [1] = Antioxidant activity assessed as inhibition of AAPH-induced rat erythrocytes hemolysis; format: functional, cell-based; conditions: erythrocyte
# [2] = Antioxidant activity assessed as free radical scavenging activity; format: functional
Compound,IC50 [1],IC50 [2]
CC(C)=CCC/C(C)=C/CN1c2cc(C(=O)c3ccccc3)ccc2Nc2c(C(=O)O)cc(C(=O)c3ccccc3)cc21 [BENTHOPHOENIN],0.8 µg/mL,0.15 µg/mL
VITAMIN E,–,10.8 µg/mL
